From PubChem BioAssay (NCI)
“And” between values parts separate entries of the source, which are not always exact repeats. Equal values may be shown once.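 Each compound was tested at five concentrations against cells in 96-well plates for 48 hours. GI50 marks 50% less growth. TGI denotes the concentration required for complete inhibition of growth.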

How the values were obtained:
Experiment in all cases: NCI tumour cell line growth inhibition, 48 h
[1] = test system: DLD-1 colon
[2] = test system: DMS 114 small cell lung
[3] = test system: M19-MEL melanoma
[4] = test system: KM20L2 colon
[5] = test system: LXFL 529 NSCLC
[6] = test system: HOP-18 NSCLC
[7] = test system: RXF-631 renal
[8] = test system: DMS 273 small cell lung
[9] = test system: P388 leukemia
[10] = test system: SN12K1 renal
[11] = test system: P388/ADR leukemia

Structure (SMILES)	TGI [1]	TGI [2] [µM]	TGI [3]	TGI [4]	TGI [5] [µM]	TGI [6]	TGI [7] [µM]	TGI [8]	TGI [9]	TGI [10]	TGI [11]	GI50 [10] [µM]	GI50 [6]	GI50 [11] [µM]	GI50 [8] [µM]	GI50 [9]	GI50 [4]
CN1COCN=C1NC#N	> 100 µM	> 100	> 100 µM	> 100 µM	> 100	> 100 µM	> 100	–	–	–	–	–	–	–	–	–	–
c1ccc(C2N=C(c3ccccn3)C(c3ccccn3)=NC2c2ccccc2)cc1 (stereo not drawn)	> 100 µM	> 100	> 100 µM	> 100 µM	> 100	> 100 µM	–	> 100 µM	–	–	–	–	–	–	–	–	–
COC(=O)c1c(CC(=O)OC(C)C)cc2n(c1=O)Cc1c-2nc2ccccc2c1OC	> 100 µM	> 100	> 100 µM	> 100 µM	> 100	> 100 µM	–	> 100 µM	–	–	–	–	–	–	–	–	–
NCCCNCCSP(=O)(O)O	> 750 µM	> 750	> 750 µM	> 750 µM	–	> 750 µM	–	> 750 µM	> 750 µM	> 750 µM	> 750 µM	–	–	–	–	–	–
CSCSCC(CO)NC(=O)/C=C\c1c(C)[nH]c(=O)[nH]c1=O (stereo not drawn)	160 µM	66.5	111 µM	129 µM	–	267 µM	–	267 µM	164 µM	84.9 µM	332 µM	–	–	–	–	–	–
CC(C)(C1=NC(C(C)(C)C)CO1)C1=N[C@@H](C(C)(C)C)CO1 (stereo partly drawn)	> 100 µM	> 100	> 100 µM	> 100 µM	> 100	> 100 µM	–	> 100 µM	–	–	–	–	–	–	–	–	–
Cc1c2cc[n+](C)cc2c(C)c2c1[nH]c1ccc(OCC(F)(F)F)cc12	> 100 µM	> 21.6	> 24.5 µM	> 100 µM	6.5	23.4 µM and > 100 µM	–	> 31.7 µM and 30.9 µM	–	–	–	–	–	–	–	–	–
CC(C)=CC(=O)OC1C2C(C)=CC(=O)C(O)C2(C)C2C3(O)OCC24C(CC(=O)OC14)C(C)C3O (stereo not drawn)	0.221 µM and 0.554 µM	–	0.0252 µM and 0.027 µM	0.197 µM and 0.153 µM	–	0.689 µM and 0.493 µM	–	0.0122 µM and 0.0241 µM	0.00568 µM	0.0169 µM and 0.0213 µM	0.575 µM and 0.84 µM	0.00412	0.192 µM and 0.0777 µM	0.181	0.02	–	–
O=c1cc(-c2ccccc2)oc2cc(OCCCCCCCCCCOc3ccc4c(=O)cc(-c5ccccc5)oc4c3)ccc12	–	> 100	> 100 µM	> 100 µM	> 100	> 100 µM	> 100	> 100 µM	–	–	–	–	–	–	–	–	–
CCN(CC)CC[n+]1ccc2c(C)c3[nH]c4ccccc4c3c(C)c2c1	13.5 µM and 14.6 µM	–	0.762 µM and 2 µM	1.51 µM and 6.24 µM	–	4.82 µM and 7.88 µM	–	1.53 µM and 1.74 µM	1.41 µM and 4.27 µM	1.18 µM and 1.8 µM	> 100 µM and 125 µM	0.268	0.901 µM and 1.91 µM	–	–	0.0448 µM and 0.024 µM	0.27 µM and 0.782 µM
C/C(N=NS(=O)(=O)c1c(C)cc(C)cc1C)=C1\C=CC=CN1O	> 100 µM	> 100	> 100 µM	> 100 µM	> 100	> 100 µM	–	> 100 µM	–	–	–	–	–	–	–	–	–
N/C(=N\N=C/c1c(O)cc(O)cc1O)NO	> 100 µM	> 100	> 100 µM	> 100 µM	–	> 100 µM	–	> 31.6 µM	> 100 µM	> 100 µM	> 100 µM	–	–	–	–	–	–
C=C1C(=O)OC2C[C@@]3(C)CCCC(=C)C3CC12 (stereo partly drawn)	14.7 µM	29.8	–	25.9 µM	11.8	31.3 µM	–	10.7 µM	–	–	–	–	–	–	–	–	–
CN1Cc2ccccc2C2(COc3ccccc3C2=O)C1 (stereo not drawn)	> 100 µM	> 100	> 100 µM	> 100 µM	> 100	> 100 µM	–	> 100 µM	–	–	–	–	–	–	–	–	–
Cc1ccc(N2Cc3c(ccc4ccccc34)OP2(=S)N2CCCC2)cc1 (stereo not drawn)	> 100 µM	–	> 100 µM	> 100 µM	–	> 100 µM	–	> 100 µM	47.9 µM	> 100 µM	> 100 µM	–	–	–	–	–	–
O=Cn1c2ccccc2c2ccccc21	> 100 µM	> 100	> 100 µM	> 100 µM	> 100	> 100 µM	–	> 100 µM	–	–	–	–	–	–	–	–	–
